From EPA's ToxRefDB 2

Columns and labels:
rat [1] = details: Prenatal developmental toxicity study, sprague dawley, Oral, Gavage/Intubation, dose end: 17 GD
dog [2] = details: Subchronic oral toxicity in nonrodent, beagle, Capsule, dose end: 14 week, group: systemic
dog [3] = details: Chronic toxicity, beagle, Oral, Capsule, dose end: 52 week, group: systemic
rat [4] = details: Subchronic oral toxicity in rodents, sprague dawley, Gavage/Intubation, dose end: 14 week, group: systemic
rat [5] = details: Multigenerational reproductive toxicity study, sprague dawley, Oral, Feed, dose end: 2 generation
rat [6] = details: Combined chronic toxicity/carcinogenicity; sprague dawley; Oral; Feed; dose end: 104 week; group: systemic; systemic / in life observation / body weight / body weight + systemic / in life observation / body weight / body weight gain + systemic / …
rabbit = details: Prenatal developmental toxicity study, new zealand white, Oral, Gavage/Intubation, dose end: 18 GD
mouse [7] = details: Prenatal developmental toxicity study, other, Oral, Gavage/Intubation, dose end: 15 GD
rat [8] = details: Subchronic oral toxicity in rodents, sprague dawley, Feed, dose end: 90 day, group: systemic, systemic / in life observation / body weight / body weight gain + systemic / pathology microscopic / liver / hypertrophy + systemic / …
mouse [9] = details: Carcinogenicity, cd1, Oral, Feed, dose end: 105 week, group: systemic
[10] = group: developmental, systemic / in life observation / body weight / fetal weight
[11] = group: maternal, systemic / in life observation / body weight / body weight gain + systemic / in life observation / food consumption / food consumption
[12] = group: maternal, systemic / in life observation / body weight / body weight gain + systemic / in life observation / food consumption / food consumption + …
[13] = systemic / hematology / anemia / anemia - nos + systemic / hematology / erythrocyte (rbc) count differential / erythrocyte (rbc) + systemic…
[14] = systemic / organ weight / liver / absolute + systemic / organ weight / liver / relative to body weight + systemic / pathology microscopic / …
[15] = systemic / pathology microscopic / gallbladder / discolored + systemic / pathology microscopic / gallbladder / vacuolization cytoplasmic
[16] = systemic / in life observation / clinical signs / alopecia
[17] = systemic / pathology microscopic / kidney / calculus + systemic / pathology microscopic / kidney / hyperplasia + systemic / pathology …
[18] = group: offspring, systemic / in life observation / body weight / offspring (pup) weight
[19] = group: parental, systemic / in life observation / body weight / body weight gain + systemic / in life observation / food consumption / food consumption
[20] = group: parental, systemic / in life observation / food consumption / food consumption
[21] = group: developmental, developmental / developmental malformation / bone / incomplete ossification + developmental / developmental malformation / lung / abnormal …
[22] = group: maternal, reproductive / reproductive performance / resorptions / resorptions + systemic / in life observation / body weight / body weight gain + …
[23] = systemic / in life observation / mortality / mortality

Question: Which results are given for c1ccc2[nH]c(-c3cscn3)nc2c1 [Thiabendazole]?
Answer: LEL (rat [1]; [10]): 40 mg/kg/day; LOAEL (rat [1]; [10]): 40 mg/kg/day; NEL (rat [1]; [10]): 10 mg/kg/day; NOAEL (rat [1]; [10]): 10 mg/kg/day; LEL (rat [1]; [11]): 40 mg/kg/day; LOAEL (rat [1]; [11]): 40 mg/kg/day; NEL (rat [1]; [12]): 10 mg/kg/day; NOAEL (rat [1]; [12]): 10 mg/kg/day; LOAEL (dog [2]; [13]): > 150 mg/kg/day; NEL (dog [2]; [13]): 35 mg/kg/day; NOAEL (dog [2]; [13]): ≥ 150 mg/kg/day; LEL (dog [2]; systemic / in life observation / clinical signs / emesis + systemic / pathology microscopic / gallbladder / vacuolization cytoplasmic): 75 mg/kg/day; LOAEL (dog [3]; [14]): 40 mg/kg/day; NOAEL (dog [3]; [14]): 10 mg/kg/day; LEL (dog [3]; [15]): 10 mg/kg/day; NEL (dog [3]; [15]): < 10 mg/kg/day; LEL (rat [4]; [16]): 25 mg/kg/day; NEL (rat [4]; [16]): < 25 mg/kg/day; LOAEL (rat [4]; [17]): 100 mg/kg/day; NOAEL (rat [4]; [17]): 25 mg/kg/day; LEL (rat [5]; [18]): 90 mg/kg/day; LOAEL (rat [5]; [18]): 90 mg/kg/day; NEL (rat [5]; [18]): 30 mg/kg/day; NOAEL (rat [5]; [18]): 30 mg/kg/day; LOAEL (rat [5]; [19]): 30 mg/kg/day; NOAEL (rat [5]; [19]): 10 mg/kg/day; LEL (rat [5]; [20]): 10 mg/kg/day; NEL (rat [5]; [20]): < 10 mg/kg/day; LEL (rat [6]): 30.1 mg/kg/day; LOAEL (rat [6]): 30.1 mg/kg/day; NEL (rat [6]): 10.1 mg/kg/day; NOAEL (rat [6]): 10.1 mg/kg/day; LEL (rabbit; [21]): 600 mg/kg/day; LOAEL (rabbit; [21]): 600 mg/kg/day; NEL (rabbit; [21]): 150 mg/kg/day; NOAEL (rabbit; [21]): 150 mg/kg/day; LEL (rabbit; [22]): 600 mg/kg/day; LOAEL (rabbit; [22]): 600 mg/kg/day; NEL (rabbit; [22]): 150 mg/kg/day; NOAEL (rabbit; [22]): 150 mg/kg/day; LEL (mouse [7]; [10]): 100 mg/kg/day; LOAEL (mouse [7]; [10]): 100 mg/kg/day; NEL (mouse [7]; [10]): 25 mg/kg/day; NOAEL (mouse [7]; [10]): 25 mg/kg/day; LEL (mouse [7]; [11]): 100 mg/kg/day; LOAEL (mouse [7]; [11]): 100 mg/kg/day; NEL (mouse [7]; [11]): 25 mg/kg/day; NOAEL (mouse [7]; [11]): 25 mg/kg/day; LEL (rat [8]): 37 mg/kg/day; LOAEL (rat [8]): 37 mg/kg/day; NEL (rat [8]): 9.4 mg/kg/day; NOAEL (rat [8]): 9.4 mg/kg/day; LOAEL (mouse [9]; systemic / in life observation / body weight / body weight gain): 92 mg/kg/day; LEL (mouse [9]; [23]): 6.95 mg/kg/day; NEL (mouse [9]; [23]): < 6.95 mg/kg/day; NOAEL (mouse [9]; systemic / in life observation / mortality / mortality + systemic / in life observation / body weight / body weight gain + systemic / organ …): 36.5 mg/kg/day
